Experimental data published in the NIST ThermoML archive (doi:10.1016/j.jct.2013.08.034).

Experiment: xn = mol fraction of the nth substance listed
Conditions: 101 kPa, Liquid; for mass density: Vibrating tube method; for electrical conductivity: Conductivity Meter Jenco 3107; for viscosity: Cone and plate viscometry

CC1COC(=O)O1 (centres undefined) [4-methyl-1,3-dioxolan-2-one] + CCCC[n+]1ccn(C)c1.O=S(=O)([N-]S(=O)(=O)C(F)(F)F)C(F)(F)F
Conditions	electrical conductivity [S/m]	mass density [kg/m3]	viscosity [mPa·s]
308.15 K, x2 = 0.7989	–	1410.26	–
308.15 K, x2 = 0.898	–	1418.04	–
313.15 K, x2 = 0	–	–	2.05
313.15 K, x2 = 0.0146	–	1194.33	–
313.15 K, x2 = 0.0296	–	1205.22	–
313.15 K, x2 = 0.0453	–	1215.97	–
313.15 K, x2 = 0.0502	1.14	–	–
313.15 K, x2 = 0.0616	–	1226.46	–
313.15 K, x2 = 0.0732	–	1233.52	–
313.15 K, x2 = 0.0997	–	1248.42	–
313.15 K, x2 = 0.1	–	–	3.21
313.15 K, x2 = 0.1004	1.44	–	–
313.15 K, x2 = 0.2001	1.66	–	–
313.15 K, x2 = 0.2002	–	–	4.59
313.15 K, x2 = 0.2004	–	1293.64	–
313.15 K, x2 = 0.3002	1.52	–	–
313.15 K, x2 = 0.3007	–	–	6.34
313.15 K, x2 = 0.3081	–	1328.25	–
313.15 K, x2 = 0.3998	–	–	8.29
313.15 K, x2 = 0.4004	–	1350.46	–
313.15 K, x2 = 0.4005	1.4	–	–
313.15 K, x2 = 0.5004	–	–	10.77
313.15 K, x2 = 0.5007	1.25	–	–
313.15 K, x2 = 0.5021	–	1369.47	–
313.15 K, x2 = 0.5839	–	1381.78	–
313.15 K, x2 = 0.6002	–	–	13.57
313.15 K, x2 = 0.6003	1.11	–	–
313.15 K, x2 = 0.6902	–	1394.71	–
313.15 K, x2 = 0.6979	–	–	16.55
313.15 K, x2 = 0.6989	0.971	–	–
313.15 K, x2 = 0.7989	–	1405.28	–
313.15 K, x2 = 0.8001	0.85	–	–
313.15 K, x2 = 0.8015	–	–	20.47
313.15 K, x2 = 0.8959	0.73	–	23.63
313.15 K, x2 = 0.898	–	1413.08	–
318.15 K, x2 = 0	–	–	1.9
318.15 K, x2 = 0.0146	–	1188.81	–
318.15 K, x2 = 0.0296	–	1199.72	–
318.15 K, x2 = 0.0453	–	1210.48	–
318.15 K, x2 = 0.0502	1.23	–	–
318.15 K, x2 = 0.0616	–	1220.94	–
318.15 K, x2 = 0.0732	–	1228.04	–
318.15 K, x2 = 0.0997	–	1243.05	–
318.15 K, x2 = 0.1	–	–	2.89
318.15 K, x2 = 0.1004	1.59	–	–
318.15 K, x2 = 0.2001	1.81	–	–
318.15 K, x2 = 0.2002	–	–	4.17
318.15 K, x2 = 0.2004	–	1288.34	–
318.15 K, x2 = 0.3002	1.68	–	–
318.15 K, x2 = 0.3007	–	–	5.68
318.15 K, x2 = 0.3081	–	1323.02	–
318.15 K, x2 = 0.3998	–	–	7.31
318.15 K, x2 = 0.4004	–	1345.37	–
318.15 K, x2 = 0.4005	1.57	–	–
318.15 K, x2 = 0.5004	–	–	9.37
318.15 K, x2 = 0.5007	1.41	–	–
318.15 K, x2 = 0.5021	–	1364.43	–
318.15 K, x2 = 0.5839	–	1376.72	–
318.15 K, x2 = 0.6002	–	–	11.75
318.15 K, x2 = 0.6003	1.26	–	–
318.15 K, x2 = 0.6902	–	1389.72	–
318.15 K, x2 = 0.6979	–	–	14.29
318.15 K, x2 = 0.6989	1.11	–	–
318.15 K, x2 = 0.7989	–	1400.29	–
318.15 K, x2 = 0.8001	0.961	–	–
318.15 K, x2 = 0.8015	–	–	17.5
318.15 K, x2 = 0.8959	0.828	–	20.04
318.15 K, x2 = 0.898	–	1408.1	–
323.15 K, x2 = 0	–	–	1.78
323.15 K, x2 = 0.0146	–	1183.28	–
323.15 K, x2 = 0.0296	–	1194.23	–
323.15 K, x2 = 0.0453	–	1204.99	–
323.15 K, x2 = 0.0502	1.32	–	–
323.15 K, x2 = 0.0616	–	1215.52	–
323.15 K, x2 = 0.0732	–	1222.56	–
323.15 K, x2 = 0.0997	–	1237.51	–
323.15 K, x2 = 0.1	–	–	2.68
323.15 K, x2 = 0.1004	1.74	–	–
323.15 K, x2 = 0.2001	1.97	–	–
323.15 K, x2 = 0.2002	–	–	3.81
323.15 K, x2 = 0.2004	–	1283	–
323.15 K, x2 = 0.3002	1.85	–	–
323.15 K, x2 = 0.3007	–	–	5.14
323.15 K, x2 = 0.3081	–	1317.8	–
323.15 K, x2 = 0.3998	–	–	6.58
323.15 K, x2 = 0.4004	–	1340.2	–
323.15 K, x2 = 0.4005	1.74	–	–
323.15 K, x2 = 0.5004	–	–	8.34
323.15 K, x2 = 0.5007	1.57	–	–
323.15 K, x2 = 0.5021	–	1359.32	–
323.15 K, x2 = 0.5839	–	1371.65	–
323.15 K, x2 = 0.6002	–	–	10.31
323.15 K, x2 = 0.6003	1.41	–	–
323.15 K, x2 = 0.6902	–	1384.62	–
323.15 K, x2 = 0.6979	–	–	12.41
323.15 K, x2 = 0.6989	1.25	–	–
323.15 K, x2 = 0.7989	–	1395.23	–
323.15 K, x2 = 0.8001	1.1	–	–
323.15 K, x2 = 0.8015	–	–	15.15
323.15 K, x2 = 0.8959	0.93	–	17.34
323.15 K, x2 = 0.898	–	1403.08	–
328.15 K, x2 = 0	–	–	1.63
328.15 K, x2 = 0.0502	1.41	–	–
328.15 K, x2 = 0.1	–	–	2.47
328.15 K, x2 = 0.1004	1.89	–	–
328.15 K, x2 = 0.2001	2.12	–	–
328.15 K, x2 = 0.2002	–	–	3.45
328.15 K, x2 = 0.3002	2.06	–	–
328.15 K, x2 = 0.3007	–	–	4.68
328.15 K, x2 = 0.3998	–	–	5.94
328.15 K, x2 = 0.4005	1.92	–	–
328.15 K, x2 = 0.5004	–	–	7.41
328.15 K, x2 = 0.5007	1.74	–	–
328.15 K, x2 = 0.6002	–	–	9.19
328.15 K, x2 = 0.6003	1.57	–	–
328.15 K, x2 = 0.6979	–	–	11
328.15 K, x2 = 0.6989	1.4	–	–
328.15 K, x2 = 0.8001	1.25	–	–
328.15 K, x2 = 0.8015	–	–	13.3
328.15 K, x2 = 0.8959	1.07	–	15.12
333.15 K, x2 = 0	–	–	1.54
333.15 K, x2 = 0.1	–	–	2.31
333.15 K, x2 = 0.2002	–	–	3.22
333.15 K, x2 = 0.3007	–	–	4.26
333.15 K, x2 = 0.3998	–	–	5.37
333.15 K, x2 = 0.5004	–	–	6.66
333.15 K, x2 = 0.6002	–	–	8.17
333.15 K, x2 = 0.6979	–	–	9.7
333.15 K, x2 = 0.8015	–	–	11.7
333.15 K, x2 = 0.8959	–	–	13.26
